Assay: xn = mol fraction of the nth substance listed

CC(=O)OC(C)C + C1CCCCC1
viscosity [mPa·s], 101 kPa
Conditions	298.15 K	308.15 K
x1 = 0.0846	0.8036	0.6718
x1 = 0.1126	0.7518	0.6494
x1 = 0.1665	0.705	0.612
x1 = 0.2671	0.636	0.5559
x1 = 0.3555	0.594	0.5212
x1 = 0.4881	0.5485	0.4824
x1 = 0.5911	0.5241	0.462
x1 = 0.6773	0.5099	0.4512
x1 = 0.7902	0.4951	0.441
x1 = 0.8873	0.4932	0.4366
x1 = 0.9593	0.4903	0.4349
x2 = 0.07507	–	0.4324
x2 = 0.2053	–	0.4373
x2 = 0.298	–	0.4444
x2 = 0.3967	–	0.4564
x2 = 0.505	–	0.4759
x2 = 0.6014	–	0.4989
x2 = 0.714	–	0.5351
x2 = 0.7973	–	0.5787
x2 = 0.8978	–	0.6451

CCCCNCCCC + CCCCCO
viscosity [mPa·s], 101.33 kPa
Conditions	x1 = 0.0971	x1 = 0.2014	x1 = 0.3007	x1 = 0.4003	x1 = 0.5004	x1 = 0.5841	x1 = 0.6901	x1 = 0.7836	x1 = 0.8845
303.15 K	2.493	2.178	1.913	1.676	1.473	1.319	1.142	1.006	0.8804
313.15 K	2.078	1.814	1.601	1.41	1.241	1.116	0.9767	0.8701	0.7633

CCCCNCCCC + ClC(Cl)Cl
298.15 K, 101.3 kPa
Conditions	viscosity [mPa·s]
x1 = 0.102	0.639
x1 = 0.199	0.717
x1 = 0.3088	0.803
x1 = 0.3714	0.845
x1 = 0.4997	0.904
x1 = 0.6082	0.925
x1 = 0.698	0.907
x1 = 0.7719	0.89
x1 = 0.9007	0.852

CCCCBr + CC(C)CO
viscosity [mPa·s], 101.33 kPa
Conditions	x2 = 0.101	x2 = 0.2014	x2 = 0.308	x2 = 0.4025	x2 = 0.5066	x2 = 0.61	x2 = 0.7006	x2 = 0.8004	x2 = 0.8984
298.15 K	0.626	0.671	0.743	0.83	0.98	1.196	1.436	1.845	2.449
308.15 K	0.549	0.576	0.624	0.682	0.783	0.934	1.1	1.387	1.807
318.15 K	0.492	0.512	0.555	0.593	0.664	0.774	0.895	1.098	1.389

CCCCNCCCC + CCCCCCCCCCO
viscosity [mPa·s], 101.33 kPa
Conditions	x1 = 0.0981	x1 = 0.1964	x1 = 0.286	x1 = 0.3857	x1 = 0.4851	x1 = 0.5846	x1 = 0.6877	x1 = 0.7856	x1 = 0.8866
303.15 K	7.771	6.615	5.545	4.423	3.439	2.607	1.944	1.445	1.073
313.15 K	5.959	4.985	4.15	3.305	2.611	2.021	1.545	1.199	0.9135

CCOC(=O)C(=O)OCC + CCCCCCCCCCO
303.15 K, 101.33 kPa
Conditions	viscosity [mPa·s]
x1 = 0.1042	6.782
x1 = 0.1986	5.372
x1 = 0.2934	4.324
x1 = 0.401	3.516
x1 = 0.5111	2.851
x1 = 0.5985	2.488
x1 = 0.7108	2.078
x1 = 0.8081	1.837
x1 = 0.8863	1.691

CCOC(=O)C(=O)OCC + Cc1ccccc1
viscosity [mPa·s], 101 kPa
Conditions	303.15 K	313.15 K	323.15 K
x1 = 0.0804	0.5603	–	–
x1 = 0.1006	0.581	0.516	0.465
x1 = 0.1644	0.5912	–	–
x1 = 0.2019	0.651	0.578	0.514
x1 = 0.2523	0.6413	–	–
x1 = 0.3013	0.725	0.646	0.571
x1 = 0.3443	0.7072	–	–
x1 = 0.4005	0.811	0.712	0.628
x1 = 0.4403	0.7809	–	–
x1 = 0.502	0.907	0.788	0.691
x1 = 0.5414	0.8798	–	–
x1 = 0.6024	1.028	0.887	0.77
x1 = 0.6481	1.007	–	–
x1 = 0.6988	1.151	0.988	0.855
x1 = 0.7597	1.167	–	–
x1 = 0.7971	1.289	1.095	0.943
x1 = 0.8762	1.38	–	–
x1 = 0.8936	1.442	1.222	1.044

C1CC[C@H]2CCCC[C@H]2C1 + C1CC[C@H]2CCCC[C@@H]2C1
Conditions	viscosity [mPa·s]
293.15 K, 101 kPa, x1 = 0.103	2.193
293.15 K, 101 kPa, x1 = 0.129	2.206
293.15 K, 101 kPa, x1 = 0.206	2.289
293.15 K, 101 kPa, x1 = 0.256	2.321
293.15 K, 101 kPa, x1 = 0.383	2.391
293.15 K, 101 kPa, x1 = 0.509	2.622
293.15 K, 101 kPa, x1 = 0.608	2.748
293.15 K, 101 kPa, x1 = 0.633	2.763
293.15 K, 101 kPa, x1 = 0.756	2.943
293.15 K, 101 kPa, x1 = 0.805	3.026
293.15 K, 101 kPa, x1 = 0.903	3.178
293.15 K, 101.3 kPa, x1 = 0.403	2.445
298.15 K, 100 kPa, x1 = 0.39	2.22
303.15 K, 101 kPa, x1 = 0.103	1.68
303.15 K, 101 kPa, x1 = 0.129	1.704
303.15 K, 101 kPa, x1 = 0.206	1.748
303.15 K, 101 kPa, x1 = 0.256	1.792
303.15 K, 101 kPa, x1 = 0.383	1.896
303.15 K, 101 kPa, x1 = 0.509	1.977
303.15 K, 101 kPa, x1 = 0.608	2.062
303.15 K, 101 kPa, x1 = 0.633	2.094
303.15 K, 101 kPa, x1 = 0.756	2.151
303.15 K, 101 kPa, x1 = 0.805	2.244
303.15 K, 101 kPa, x1 = 0.903	2.342
303.15 K, 101.3 kPa, x1 = 0.403	1.998
313.15 K, 101.3 kPa, x1 = 0.403	1.705
323.15 K, 100 kPa, x1 = 0.39	1.44
323.15 K, 101.3 kPa, x1 = 0.403	1.457

CCCCBr + Cc1cc(C)cc(C)c1
308.15 K, 101 kPa
Conditions	viscosity [mPa·s]
x2 = 0.0991	0.5234
x2 = 0.1968	0.5242
x2 = 0.3043	0.5299
x2 = 0.406	0.5323
x2 = 0.4969	0.5372
x2 = 0.5975	0.5416
x2 = 0.7014	0.5482
x2 = 0.7972	0.5513
x2 = 0.8984	0.5568

CCCC(C)O (stereo not drawn) + CCCCCCC
101 kPa
Conditions	viscosity [mPa·s]
293.8 K, x1 = 0.5	0.771
295.1 K, x1 = 0.051	0.477

CCCC(C)O (stereo not drawn) + C1CCCCC1
303.15 K, 101.33 kPa
Conditions	viscosity [mPa·s]
x1 = 0.1049	0.874
x1 = 0.2028	0.94
x1 = 0.3035	1.03
x1 = 0.4031	1.151
x1 = 0.5017	1.306
x1 = 0.6043	1.534
x1 = 0.6903	1.772
x1 = 0.801	2.116
x1 = 0.9115	2.521

COCCO + Cc1ccc(C)cc1
viscosity [mPa·s], 101 kPa
Conditions	298.15 K	308.15 K
x1 = 0.0528	0.626	0.549
x1 = 0.1469	0.654	0.57
x1 = 0.2507	0.696	0.601
x1 = 0.3484	0.746	0.639
x1 = 0.4499	0.812	0.688
x1 = 0.4999	0.85	0.716
x1 = 0.5542	0.897	0.75
x1 = 0.6493	0.994	0.82
x1 = 0.7508	1.122	0.913
x1 = 0.8478	1.274	1.021
x1 = 0.9556	1.488	1.17
